Read-outs that look alike come from different tables or passages of the source.
Target: T1, LRRK2 (endogenous, HiBit tagged) (Homo sapiens, UniProt Q5S007)
T1 construct: endogenous in cells; host or cells: HEK293 cells with HiBit knock-in at the endogenous LRRK2 locus, stably expressing firefly luciferase
Experiment: Endogenous LRRK2 degradation assay, endogenous gene C-terminally HiBit-tagged in HEK293 cells (Nano-Glo Dual Luciferase)
Format: cell-based
In short: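 LRRK2-HiBit quantified via Nano-Glo Dual Luciferase in HEK293 knock-in cells co-expressing firefly luciferase, after 24 h exposure to compound (1 μM final top, 1:3, 11 points). Values normalised to DMSO median per plate and curve-fitted; Alamar Blue viability run alongside.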

[1] = endogenous HiBit-tagged LRRK2 in HEK293 cells, 24 hours treatment, read-out: Endogenous WT DC50
[2] = endogenous HiBit-tagged LRRK2 in HEK293 cells, 24 hours treatment, read-out: Endogenous WT Dmax

T1 sequence (Q5S007 whole entry): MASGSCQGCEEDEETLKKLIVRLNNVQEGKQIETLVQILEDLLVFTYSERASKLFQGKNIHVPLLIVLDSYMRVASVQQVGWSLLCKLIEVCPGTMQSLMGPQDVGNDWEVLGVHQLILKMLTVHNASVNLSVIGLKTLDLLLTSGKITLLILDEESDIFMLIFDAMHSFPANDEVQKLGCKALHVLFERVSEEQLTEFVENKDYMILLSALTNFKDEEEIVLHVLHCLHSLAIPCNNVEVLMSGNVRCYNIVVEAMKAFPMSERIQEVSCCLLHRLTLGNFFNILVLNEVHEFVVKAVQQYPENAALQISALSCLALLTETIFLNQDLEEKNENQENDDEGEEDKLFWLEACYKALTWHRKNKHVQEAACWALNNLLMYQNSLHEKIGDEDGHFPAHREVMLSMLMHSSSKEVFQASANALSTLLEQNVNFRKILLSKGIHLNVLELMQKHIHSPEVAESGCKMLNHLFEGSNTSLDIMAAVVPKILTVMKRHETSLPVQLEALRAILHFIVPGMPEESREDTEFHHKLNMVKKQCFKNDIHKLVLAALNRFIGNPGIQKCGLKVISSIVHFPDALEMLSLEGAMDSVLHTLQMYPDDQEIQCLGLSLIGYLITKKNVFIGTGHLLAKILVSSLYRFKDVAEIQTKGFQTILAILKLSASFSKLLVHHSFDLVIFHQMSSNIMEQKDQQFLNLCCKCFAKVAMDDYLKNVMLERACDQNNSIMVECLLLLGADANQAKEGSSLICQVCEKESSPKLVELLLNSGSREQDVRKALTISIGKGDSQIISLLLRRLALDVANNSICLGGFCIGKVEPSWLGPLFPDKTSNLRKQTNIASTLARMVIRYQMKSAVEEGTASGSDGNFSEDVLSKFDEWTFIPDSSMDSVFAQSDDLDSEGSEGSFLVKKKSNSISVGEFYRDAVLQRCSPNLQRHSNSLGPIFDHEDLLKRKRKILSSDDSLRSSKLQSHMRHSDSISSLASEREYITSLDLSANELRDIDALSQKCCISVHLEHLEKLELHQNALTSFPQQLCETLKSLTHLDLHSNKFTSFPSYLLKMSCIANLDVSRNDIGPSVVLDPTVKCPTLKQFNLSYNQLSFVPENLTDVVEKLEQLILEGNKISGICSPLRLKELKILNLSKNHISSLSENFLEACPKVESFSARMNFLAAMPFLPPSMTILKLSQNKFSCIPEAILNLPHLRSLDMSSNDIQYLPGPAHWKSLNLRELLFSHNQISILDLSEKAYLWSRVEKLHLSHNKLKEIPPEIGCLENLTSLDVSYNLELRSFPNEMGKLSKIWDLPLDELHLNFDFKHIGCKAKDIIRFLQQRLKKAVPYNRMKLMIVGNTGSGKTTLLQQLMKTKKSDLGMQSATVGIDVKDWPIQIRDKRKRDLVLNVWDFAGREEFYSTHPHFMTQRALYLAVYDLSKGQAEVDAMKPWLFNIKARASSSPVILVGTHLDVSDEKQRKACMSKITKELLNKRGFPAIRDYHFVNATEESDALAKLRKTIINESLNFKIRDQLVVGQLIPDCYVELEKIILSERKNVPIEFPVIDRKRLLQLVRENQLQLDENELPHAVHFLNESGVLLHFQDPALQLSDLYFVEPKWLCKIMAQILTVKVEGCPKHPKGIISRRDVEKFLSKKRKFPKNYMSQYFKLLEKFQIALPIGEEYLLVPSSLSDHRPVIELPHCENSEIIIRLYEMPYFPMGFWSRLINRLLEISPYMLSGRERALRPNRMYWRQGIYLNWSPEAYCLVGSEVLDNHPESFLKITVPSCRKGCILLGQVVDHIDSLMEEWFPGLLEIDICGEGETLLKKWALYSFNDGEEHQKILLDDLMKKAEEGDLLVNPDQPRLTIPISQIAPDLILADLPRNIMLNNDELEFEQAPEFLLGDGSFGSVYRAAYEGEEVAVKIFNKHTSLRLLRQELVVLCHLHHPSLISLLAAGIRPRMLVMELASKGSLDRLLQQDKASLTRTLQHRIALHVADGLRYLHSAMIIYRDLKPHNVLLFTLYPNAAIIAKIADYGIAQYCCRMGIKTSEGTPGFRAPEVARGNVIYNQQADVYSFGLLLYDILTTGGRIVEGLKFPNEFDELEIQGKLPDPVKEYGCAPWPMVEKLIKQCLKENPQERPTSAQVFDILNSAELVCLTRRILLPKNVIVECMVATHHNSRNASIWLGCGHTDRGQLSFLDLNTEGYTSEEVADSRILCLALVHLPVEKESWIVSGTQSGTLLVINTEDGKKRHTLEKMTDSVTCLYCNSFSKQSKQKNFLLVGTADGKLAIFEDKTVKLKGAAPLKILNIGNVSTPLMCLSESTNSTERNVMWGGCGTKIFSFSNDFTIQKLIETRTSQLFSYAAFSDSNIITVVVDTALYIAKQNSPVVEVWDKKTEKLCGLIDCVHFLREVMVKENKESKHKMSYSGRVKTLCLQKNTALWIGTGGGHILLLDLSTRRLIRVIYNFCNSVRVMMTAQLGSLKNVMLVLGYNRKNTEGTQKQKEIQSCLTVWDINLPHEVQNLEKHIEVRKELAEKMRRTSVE

Dmax (endogenous HiBit-tagged LRRK2, HEK293 cells, 24 hours, read-out: **Endogenous WT Dmax (%)) [%]	DC50 (endogenous HiBit-tagged LRRK2, HEK293 cells, 24 hours, read-out: *Endogenous WT DC50) [nM]	DC50 [1] [nM]	Dmax [2] [%]	Compound
≥ 70	< 10	–	–	CC1(Oc2ccc3[nH]nc(-c4cc(N5CCN(C[C@H]6CC[C@H](CN7CCN(c8ccc9c(c8F)CN(C8CCC(=O)NC8=O)C9=O)CC7)CC6)CC5)ncn4)c3c2)CC1 (stereo partly drawn) [Compound 202, 3-[4-fluoro-5-[[4-[[4-[4-[6-[5-(1-methylcyclopropoxy)-1H-indazol-3-yl]pyrimidin-4-yl]piperazin-1-yl]methyl]cyclohexyl]methyl]piperazin-1-yl]-1-oxo-isoindolin-2-yl]piperidine-2,6-dione]
–	–	< 10	≥ 70	CC1(Oc2cc3c(-c4cc(N5CCN(C[C@H]6CC[C@H](CN7CCN(c8ccc9c(c8F)CN(C8CCC(=O)NC8=O)C9=O)CC7)CC6)CC5)ncn4)n[nH]c3cc2F)CC1 (stereo partly drawn) [Compound 203, 3-[4-fluoro-1-oxo-5-(4-{[(1r,4r)-4-[(4-{6-[6-fluoro-5-(1-methylcyclopropoxy)-1H-indazol-3-yl]pyrimidin-4-yl}piperazin-1-yl)methyl]cyclohexyl]methyl}piperazin-1-yl)-2,3-dihydro-1H-isoindol-2-yl]piperidine-2,6-dione]
–	–	< 10	≥ 70	CC1(Oc2ccc3[nH]nc(-c4cc(N5CCC(CC6(F)CCN(CC7CCN(c8ccc9c(c8F)CN(C8CCC(=O)NC8=O)C9=O)CC7)CC6)CC5)ncn4)c3c2)CC1 (stereo not drawn) [Compound 206, 3-[4-fluoro-5-[4-[[4-fluoro-4-[[1-[6-[5-(1-methylcyclopropoxy)-1H-indazol-3-yl]pyrimidin-4-yl]-4-piperidyl]methyl]-1-piperidyl]methyl]-1-piperidyl]-1-oxo-isoindolin-2-yl]piperidine-2,6-dione]
–	–	10 to 50	50 to 70	CC1(Oc2cc3c(-c4cc(N5CCC(CC6(F)CCN(CC7CCN(c8ccc9c(c8F)CN(C8CCC(=O)NC8=O)C9=O)CC7)CC6)CC5)ncn4)n[nH]c3cc2F)CC1 (stereo not drawn) [Compound 207, 3-[4-fluoro-5-[4-[[4-fluoro-4-[[1-[6-[6-fluoro-5-(1-methylcyclopropoxy)-1H-indazol-3-yl]pyrimidin-4-yl]-4-piperidyl]methyl]-1-piperidyl]methyl]-1-piperidyl]-1-oxo-isoindolin-2-yl]piperidine-2,6-dione]
–	–	< 10	50 to 70	CC1(Oc2ccc3n[nH]c(-c4cc(N5CCC(O[C@H]6CC[C@H](CN7CCN(c8cc9c(cc8F)C(=O)N(C8CCC(=O)NC8=O)C9)CC7)CC6)CC5)ncn4)c3c2)CC1 (stereo partly drawn) [Compound 208, 3-[6-fluoro-5-[4-[[4-[[1-[6-[5-(1-methylcyclopropoxy)-2H-indazol-3-yl]pyrimidin-4-yl]-4-piperidyl]oxy]cyclohexyl]methyl]piperazin-1-yl]-1-oxo-isoindolin-2-yl]piperidine-2,6-dione]
–	–	< 10	≥ 70	CC1(Oc2ccc3n[nH]c(-c4cc(N5CCC(CN6CCN(CC7(F)CCN(c8ccc9c(c8F)CN(C8CCC(=O)NC8=O)C9=O)CC7)CC6)CC5)ncn4)c3c2)CC1 (stereo not drawn) [Compound 209, 3-[4-fluoro-5-[4-fluoro-4-[[4-[[1-[6-[5-(1-methylcyclopropoxy)-2H-indazol-3-yl]pyrimidin-4-yl]-4-piperidyl]methyl]piperazin-1-yl]methyl]-1-piperidyl]-1-oxo-isoindolin-2-yl]piperidine-2,6-dione]
–	–	< 10	≥ 70	CC1(Oc2cc3c(-c4cc(N5CCC(O[C@H]6CC[C@H](OC7CCN(c8ccc9c(c8F)CN(C8CCC(=O)NC8=O)C9=O)CC7)CC6)CC5)ncn4)n[nH]c3cn2)CC1 (stereo partly drawn) [Compound 210, 3-[4-fluoro-5-[4-[4-[[1-[6-[5-(1-methylcyclopropoxy)-1H-pyrazolo[3,4-c]pyridin-3-yl]pyrimidin-4-yl]-4-piperidyl]oxy]cyclohexoxy]-1-piperidyl]-1-oxo-isoindolin-2-yl]piperidine-2,6-dione]
–	–	< 10	≥ 70	COc1c(N2CCC(CN3CCN(CC4CCN(c5cc(-c6n[nH]c7ccc(OC8(C)CC8)cc67)ncn5)CC4)CC3)CC2)ccc2c1CN(C1CCC(=O)NC1=O)C2=O (stereo not drawn) [Compound 211, 3-[4-methoxy-5-[4-[[4-[[1-[6-[5-(1-methylcyclopropoxy)-1H-indazol-3-yl]pyrimidin-4-yl]-4-piperidyl]methyl]piperazin-1-yl]methyl]-1-piperidyl]-1-oxo-isoindolin-2-yl]piperidine-2,6-dione]
–	–	< 10	50 to 70	COc1c(N2CCC(CN3CCC(F)(CN4CCN(c5cc(-c6n[nH]c7ccc(OC8(C)CC8)cc67)ncn5)CC4)CC3)CC2)ccc2c1CN(C1CCC(=O)NC1=O)C2=O (stereo not drawn) [Compound 212, 3-[5-[4-[[4-fluoro-4-[[4-[6-[5-(1-methylcyclopropoxy)-1H-indazol-3-yl]pyrimidin-4-yl]piperazin-1-yl]methyl]-1-piperidyl]methyl]-1-piperidyl]-4-methoxy-1-oxo-isoindolin-2-yl]piperidine-2,6-dione]
–	–	< 10	≥ 70	CC1(Oc2ccc3n[nH]c(-c4cc(N5CCC(O[C@H]6CC[C@H](CN7CCN(c8ccc9c(c8F)CN(C8CCC(=O)NC8=O)C9=O)CC7)CC6)CC5)ncn4)c3c2)CC1 (stereo partly drawn) [Compound 213, 3-[4-fluoro-5-[4-[[4-[[1-[6-[5-(1-methylcyclopropoxy)-2H-indazol-3-yl]pyrimidin-4-yl]-4-piperidyl]oxy]cyclohexyl]methyl]piperazin-1-yl]-1-oxo-isoindolin-2-yl]piperidine-2,6-dione]
–	–	< 10	≥ 70	CC1(Oc2ccc3n[nH]c(-c4cc(N5CCC(CN6CCN(CC7CCN(c8ccc(F)c9c8CN(C8CCC(=O)NC8=O)C9=O)CC7)CC6)CC5)ncn4)c3c2)CC1 (stereo not drawn) [Compound 214, 3-[7-fluoro-4-[4-[[4-[[1-[6-[5-(1-methylcyclopropoxy)-2H-indazol-3-yl]pyrimidin-4-yl]-4-piperidyl]methyl]piperazin-1-yl]methyl]-1-piperidyl]-1-oxo-isoindolin-2-yl]piperidine-2,6-dione]
–	–	< 10	≥ 70	COc1cc(N2CCC(CN3CCN(CC4CCN(c5cc(-c6n[nH]c7ccc(OC8(C)CC8)cc67)ncn5)CC4)CC3)CC2)cc2c1C(=O)N(C1CCC(=O)NC1=O)C2 (stereo not drawn) [Compound 215, 3-[7-methoxy-5-[4-[[4-[[1-[6-[5-(1-methylcyclopropoxy)-1H-indazol-3-yl]pyrimidin-4-yl]-4-piperidyl]methyl]piperazin-1-yl]methyl]-1-piperidyl]-1-oxo-isoindolin-2-yl]piperidine-2,6-dione]
–	–	< 10	≥ 70	COc1cc(N2CCC(CN3CCC(F)(CN4CCN(c5cc(-c6n[nH]c7ccc(OC8(C)CC8)cc67)ncn5)CC4)CC3)CC2)cc2c1C(=O)N(C1CCC(=O)NC1=O)C2 (stereo not drawn) [Compound 216, 3-{5-[4-({4-fluoro-4-[(4-{6-[5-(1-methylcyclopropoxy)-1H-indazol-3-yl]pyrimidin-4-yl}piperazin-1-yl)methyl]piperidin-1-yl}methyl)piperidin-1-yl]-7-methoxy-1-oxo-2,3-dihydro-1H-isoindol-2-yl}piperidine-2,6-dione]
–	–	10 to 50	50 to 70	CC1(Oc2ccc3n[nH]c(-c4cc(N5CCC(CN6CCN(CC7CCN(c8c(F)ccc9c8CN(C8CCC(=O)NC8=O)C9=O)CC7)CC6)CC5)ncn4)c3c2)CC1 (stereo not drawn) [Compound 217, 3-[5-fluoro-4-[4-[[4-[[1-[6-[5-(1-methylcyclopropoxy)-2H-indazol-3-yl]pyrimidin-4-yl]-4-piperidyl]methyl]piperazin-1-yl]methyl]-1-piperidyl]-1-oxo-isoindolin-2-yl]piperidine-2,6-dione]
–	–	< 10	50 to 70	CC1(Oc2ccc3[nH]nc(-c4cc(N5CCC(CN6CCN(CC7CCN(c8c(F)cc9c(c8F)CN(C8CCC(=O)NC8=O)C9=O)CC7)CC6)CC5)ncn4)c3c2)CC1 (stereo not drawn) [Compound 219, 3-[4,6-difluoro-5-[4-[[4-[[1-[6-[5-(1-methylcyclopropoxy)-1H-indazol-3-yl]pyrimidin-4-yl]-4-piperidyl]methyl]piperazin-1-yl]methyl]-1-piperidyl]-1-oxo-isoindolin-2-yl]piperidine-2,6-dione]
–	–	< 10	50 to 70	CC1(Oc2ccc3[nH]nc(-c4cc(N5CCN(CC6(F)CCN(CC7CCN(c8c(F)cc9c(c8F)CN(C8CCC(=O)NC8=O)C9=O)CC7)CC6)CC5)ncn4)c3c2)CC1 (stereo not drawn) [Compound 220, 3-{4,6-difluoro-5-[4-({4-fluoro-4-[(4-{6-[5-(1-methylcyclopropoxy)-1H-indazol-3-yl]pyrimidin-4-yl}piperazin-1-yl)methyl]piperidin-1-yl}methyl)piperidin-1-yl]-1-oxo-2,3-dihydro-1H-isoindol-2-yl}piperidine-2,6-dione]
–	–	< 10	50 to 70	C[C@H]1CN(CC2CCN(c3ccc4c(c3F)CN(C3CCC(=O)NC3=O)C4=O)CC2)CCN1CC1CCN(c2cc(-c3n[nH]c4ccc(OC5(C)CC5)cc34)ncn2)CC1 (stereo partly drawn) [Compound 221, 3-[4-fluoro-5-(4-{[(3S)-3-methyl-4-[(1-{6-[5-(1-methylcyclopropoxy)-1H-indazol-3-yl]pyrimidin-4-yl}piperidin-4-yl)methyl]piperazin-1-yl]methyl}piperidin-1-yl)-1-oxo-2,3-dihydro-1H-isoindol-2-yl]piperidine-2,6-dione]

Compound	Dmax (endogenous HiBit-tagged LRRK2, HEK293 cells, 24 hours, read-out: **Endogenous WT Dmax (%)) [%]	DC50 (endogenous HiBit-tagged LRRK2, HEK293 cells, 24 hours, read-out: *Endogenous WT DC50) [nM]	DC50 [1] [nM]	Dmax [2] [%]
CC1(Oc2cc3c(-c4cc(N5CCC(O[C@H]6C[C@H](OC7CCN(c8ccc9c(c8F)CN(C8CCC(=O)NC8=O)C9=O)CC7)C6)CC5)ncn4)n[nH]c3cn2)CC1 (stereo partly drawn) [Compound 218, 3-[4-fluoro-5-[4-[3-[[1-[6-[5-(1-methylcyclopropoxy)-1H-pyrazolo[3,4-c]pyridin-3-yl]pyrimidin-4-yl]-4-piperidyl]oxy]cyclobutoxy]-1-piperidyl]-1-oxo-isoindolin-2-yl]piperidine-2,6-dione]	–	–	< 10	50 to 70

— patent US12559506B2, “Indazole based compounds and associated methods of use” (Arvinas Operations, Inc., priority 2021, dated 2026)
